“Also recorded” adds a separate entry of the source. Read-outs that look alike come from different tables or passages of the source.
Assays:
RSa cells = test: DNA synthetic activity test ([^3 H]dTHD uptake into acid insoluble materials); format: cell-based, human; details: for activity at 0.1 µM: Homo sapiens, 24 h, RSa cells, read-out: DNA synthesis (% of control)
From the text: Four established cell lines were used. These were MM-1CB, derived from tissues of malignant melanoma (level IV, pT4 N0 M0) in a person (Jpn. J. Dermatol. 96:947 (1986)); KT, derived from metastatic brain tumor in a person (J. Rad. Res. 26:59 (1985) and The 44th Meeting of Japanese Cancer Association, 718 (1985)); PLC/PRF/5, derived from human hepatoma (Brit. J. Cancer 34:509-515 (1976)) and a transformed cell line RSa (Virology 135:20-29 (1984), and J. Natl. Cancer Inst. 56:919-926 (1976)). [^3 H]dTHD uptake into acid insoluble materials were estimated in KT and RSa cells treated with the various agents, as described in J. Gen. Virol. […] 67:651-661 (1986).

KT cells [1] = test: as above; format: cell-based, human; details: 0.1 μM dipyridamole with HuIFN-β (FIG. 8)
From the text: Four established cell lines were used. These were MM-1CB, derived from tissues of malignant melanoma (level IV, pT4 N0 M0) in a person (Jpn. J. Dermatol. 96:947 (1986)); KT, derived from metastatic brain tumor in a person (J. Rad. Res. 26:59 (1985) and The 44th Meeting of Japanese Cancer Association, 718 (1985)); PLC/PRF/5, derived from human hepatoma (Brit. J. Cancer 34:509-515 (1976)) and a transformed cell line RSa (Virology 135:20-29 (1984), and J. Natl. Cancer Inst. 56:919-926 (1976)).
[^3 H]dTHD uptake into acid insoluble materials were estimated in KT and RSa cells treated with the various agents, as described in J. Gen. Virol. 67:651-661 (1986).

KT cells [2] = test: Microscopic study of morphology; format: cell-based, human; details: combination treatment, dipyridamole 0.1 μM and HuIFN-α 10 units/ml (FIG. 6)
From the text: (§1) Cells seeded in test dishes were observed and photographed using OLYMPUS IMT-2 ([…] amplification).

MM-1CB = test: Microscopic study of morphology; format: cell-based, human; details: dipyridamole 0.1 μM with HuIFN-β 10 units/ml, 6 days (FIG. 2)
From the text: as §1

PLC/PRF/5 cells = test: Microscopic study of morphology; format: cell-based, human; details: combination treatment, dipyridamole 0.1 μM and HuIFN-β 10 units/ml (FIG. 7)
From the text: as §1

[3] = tested on: antiviral activity in culture medium; test: Antiviral activity (IFN production) in culture medium of treated cells; format: cell-based; details: 0.1 μM dipyridamole-treated cells
From the text: Virol. 67:651-611 (1986).

MM-1CB cells = test: Tumor growth in nude mice, treatment from 3 days after MM-1CB implantation; format: in vivo, human tumor cells in male athymic nude mice (BALB/cA JcL-nu); details: combination of dipyridamole and interferon, 3 days after injection, vs each agent alone (FIG. 9)
Method: Male athymic nude mice (BALB/cA JcL-nu) used were 4 week old and weighed 14 to 18 g at the beginning of the experiment. All mice were given a basal diet (FR-II, Funabashi Nojo Co., Ltd., Funabashi) ad libitum.
Control animals were treated with phosphate buffered saline.
On day 62 post tumor implantation the size of each tumor was measured by caliper (two dimensions) and the measurements were converted to an approximation of tumor weight employing the formula: (a×b^2)/2, where a and b are the length and width of tumor, respectively.

DNA of MM-1CB cells = test: Alkaline sucrose gradient assay (DNA damage); format: cell-based, human; details: 10 μM dipyridamole 24 h then 10^3 IU/ml IFNβ 24 h (FIG. 12)
Method: Cells (2×10^5), prelabelled with [^14 C]Thymidine, were seeded in 60 mm culture dishes and then cultured with and without agents. After the indicated tie cells were scraped off from the dishes and suspended in ice-cold phosphate-buffer saline solution containing 10 mM EDTA.
The cell suspensions were then exposed to 100R of X-rays in order to facilitate the unwinding and separation of DNA strands, and the solution containing SDS was applied to the cells, 2% of the final concentration of sodium dodecil sulfate (SDS).
The cell lysates were layered on alkaline solution with 5-20% sucrose gradients containing 0.1M NaOH and 0.1M NaCl. Then the gradients were immediately centrifuged at 10,000 rpm for 17 hr at 20° C. in a Hitachi RPS55T rotor.
After centrifugation, solutions were fractionated and collected onto Whatmann 17 CHROMA paper strips. Radioactivity of acid-insoluble materials on the strips were counted in toluene based scintillator. The percentage of the total dpm in each fraction was calculated taking the input dpm as 100%.
C 10^3 IU/ml IFNβ exposure for 48 hr;

[4] = tested on: plasminogen activator-like protease; test: Protease activity after dipyridamole exposure (^125 I-fibrin release); format: cell-based, human (MM-1CB cells); details: dipyridamole alone; MM-1CB, 30 min (FIG. 13)
From the text: Assay methods were similar to those described elsewhere (Suzuki et al., Mutation Res. 198:207-214 (1988)). Results were expressed as the total amount of ^125 I-radioactivity released from the labelled fibrin per protein contents.

[5] = tested on: MM-1CB, KT and PLC/PRF/5 cells; test: Anticellular action of HuIFN combined with dipyridamole (FIGS. 3-5); format: cell-based, human; details: FIGS. 3B, 4B and 5B
Method: Changes of medium with and without agents were carried out every other day. The viable cells were determined by trypan-blue exclusion test and counted with a hemocytometer. The survival percentage ratio was expressed as (counts of viable cells in test dishes per counts of viable cells in control dishes) x 100%, as described elsewhere in, e.g., Mutation Research 106:357-376 (1982) and […]. 67:651-661 (1986).

interferon effect = test: Enhancement of interferon effect in vitro; format: cell-based
[6] = tested on: activity of N-phosphoracetyl-L-aspartate (PALA); details: in vitro and in vivo; cited from earlier work
[7] = tested on: chinese hamster ovary cells; details: in vitro and in vivo; cited from earlier work
[8] = tested on: ridgway osteogenic sarcoma; details: with MTX; cited from earlier work
LIZIO leukemia = details: with MTX; cited from earlier work
metastasis = details: cited from earlier work
[9] = tested on: explanted mouse peritoneal leukocytes and other cells; details: in vitro; cited from earlier work
interferon in mice = details: I.V.; cited from earlier work
[10] = tested on: salvage pathway of DNA synthesis; details: cited from earlier work
[11] = tested on: nucleoside transport through the cell membrane; details: cited from earlier work
DNA = details: dipyridamole alone; cited from earlier work

Q: What does the source list for `OCCN(CCO)c1nc(N2CCCCC2)c2nc(N(CCO)CCO)nc(N3CCCCC3)c2n1` [dipyridamole, 2,6-bis(diethanolamine)-4,8-dipiperidino-pyrimido[5,4-d]pyrimidin]?
A: DNA synthesis inhibition, comparison in words (RSa cells; 0.1 μM dipyridamole or mopidamole, alone vs combined with HuIFN-α): inhibited less than with combined treatment with HuIFN-α; also recorded: significantly more effective than mopidamole/HuIFN-α; activity at 0.1 µM (RSa cells; agent 0.1 μM combined with HuIFN-α 1 unit/ml): 61%; activity at 0.1 µM (RSa cells; agent 0.1 μM, HuIFN-α 0 unit/ml): 92%; enhancement of HuIFN inhibitory effect on DNA synthesis (KT cells [1]): remarkably enhanced; cellular morphological conditions (KT cells [2]): showed impairment after the combination treatment; cell morphology (MM-1CB): morphologically impaired; cellular morphological conditions (PLC/PRF/5 cells): showed impairment after the combination treatment; levels of antiviral activity in culture medium [3]: no detectable levels of antiviral activity; inhibition of tumor growth (MM-1CB cells): more noticeably inhibited; DNA damage under alkaline assay conditions (DNA of MM-1CB cells): resulted in damaged DNA; also recorded: the most part DNA shifted into lower molecular mass; activity of plasminogen activator-like protease [4]: induced after a few minutes of treatment; most effective concentration for the synergistic enhancement of HuIFN action [5]: less than 0.1 μM; dose that enhances the interferon effect in vitro (interferon effect): less than 1 μM; potentiation of PALA [6]: can potentiate the activity of N-phosphoracetyl-L-aspartate (PALA) in vitro and in vivo; toxicity of methotrexate (MTX) [7]: enhanced the toxicity of methotrexate (MTX); antitumor activity of MTX [8]: not dramatically improved; antitumor activity of MTX (LIZIO leukemia): not dramatically improved; metastatic effect (metastasis): potential metastatic effect; interferon production [9]: induced interferon production in vitro in explanted mouse peritoneal leukocytes and other cells; interferon induction in mice (interferon in mice): induced interferon in mice after I.V. administration; block of the salvage pathway of DNA synthesis [10]: effective blocker of the salvage pathway of DNA synthesis; nucleoside transport [11]: can inhibit nucleoside transport through the cell membrane; DNA damage (DNA): does not damage DNA
